The source of these data is the NIST ThermoML archive (doi:10.1021/je3012452).

± gives the expanded uncertainty stated by the source.

For data set [1] the following is noted: DTA.
Data set [2] can be described thus: Molar enthalpy of transition or fusion. The settings on record: DSC.

Turning to `CC(C)C(N)=O` [2-methylpropanamide], the Normal melting temperature in data set [1] (Crystal) was found to be 128.5 ± 0.9 °C. For the same compound, the “Molar enthalpy of transition or fusion” value in data set [2] (Crystal) stood at 4.76 ± 0.12 kcal/mol.

In the case of `CCCC(CCC)C(N)=O` [2-propylpentanamide], the Normal melting temperature in data set [1] (Crystal 1) turned out to be 125.1 ± 0.5 °C. Besides, the Triple point temperature in data set [1] (Crystal 2) was found to be 360.6 ± 0.9 K. In addition, the “Molar enthalpy of transition or fusion” value is 5.38 ± 0.311 kcal/mol in data set [2] (Crystal 1) and 0.418 ± 0.105 kcal/mol in data set [2] (Crystal 2).

With `CCCCCCC(N)=O` [heptanamide], the Normal melting temperature in data set [1] (Crystal 1) was determined as 95.5 ± 1.1 °C. The Triple point temperature in data set [1] (Crystal 2) stood at 356.1 ± 0.5 K; in data set [1] (Crystal 3), 319 ± 1.6 K. Moreover, the figures for the “Molar enthalpy of transition or fusion” value in data set [2] (Crystal 1), in data set [2] (Crystal 2) and in data set [2] (Crystal 3) were 3.87 ± 0.12 kcal/mol, 0.813 ± 0.0478 kcal/mol and 1.79 ± 0.143 kcal/mol, respectively.

Take `CCCCCC(N)=O` [hexanamide]: in data set [1] (Crystal 1), the Normal melting temperature is 99.2 ± 2.8 °C. Further, the Triple point temperature in data set [1] (Crystal 2) was 306.1 ± 0.5 K. For the same compound, the “Molar enthalpy of transition or fusion” value was 4.02 ± 0.167 kcal/mol in data set [2] (Crystal 1) and 1.22 ± 0.0717 kcal/mol in data set [2] (Crystal 2).
